Experimental data taken from patent US12552834B2, “Selective MENA binding peptides” (MASSACHUSETTS INSTITUTE OF TECHNOLOGY, priority 2021, dated 2026).

What was measured:
[1] = system: EVL Y63C, I26A and VASP W89Y, L15V; test: BLI, binding to EVL and VASP hydrophobic core mutants
[2] = system: VASP or EVL EVH1 domains; test: BLI, paralog selectivity: ENAH versus VASP or EVL EVH1 domains; assay type: binding
Method: Next, we examined whether residues flanking FP4 (SEQ ID NO:46) SLiMs impact paralog specificity.
All BLI experiments were performed with 2 replicates on an Octet Red96 instrument (ForteBio). Biotinylated, 6×-His-Sumo-peptide fusions purified in small scale were diluted into BLI buffer (PBS pH 7.4, 1% BSA, 0.1% Tween-20, 1 mM DTT) and immobilized onto streptavidin-coated tips (ForteBio) until loading reached a response level between 0.5-0.6 nm. The loaded tips were immersed in a solution of ENAH EVH1 domain at a relevant dilution series in BLI buffer at an orbital shake speed of 1000 rpm and run until the binding signal plateaued. ENAH-bound tips were subsequently placed into BLI buffer only for dissociation and run until the binding signal plateaued. KD values were obtained through steady state analysis. Briefly, the data were corrected for background by subtracting the signal obtained when doing the same experiment using a biotinylated, 6×-His Sumo instead of an immobilized ENAH-binding peptide. The association phases were then fit to a one-phase binding model in Prism and the equilibrium steady-state binding signal values from that fit were plotted against ENAH concentration and fit to a single-site specific binding model in Prism to obtain dissociation constants. Errors reported are the standard deviation of two replicates. […]

[3] = target: T1, ENAH EVH1 domain (Homo sapiens, UniProt Q8N8S7); test: Biolayer interferometry (BLI), SUMO-peptide fusions binding monomeric ENAH EVH1 domain WT
T1 construct: places a 6×-His and TEV cleavage tag N-terminal to the EVH1 domain; 6×-His + TEV cleavage site (N, cleaved yes); made in house; host or cells: E. coli Rosetta2(DE3)
T1 sequence (Q8N8S7 with tags, fused parts or gaps): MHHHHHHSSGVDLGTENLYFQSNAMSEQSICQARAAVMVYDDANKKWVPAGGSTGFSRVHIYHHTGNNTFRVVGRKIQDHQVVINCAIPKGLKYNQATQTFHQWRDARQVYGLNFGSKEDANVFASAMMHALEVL
Method: All BLI experiments were performed with 2 replicates on an Octet Red96 instrument (ForteBio). […] The loaded tips were immersed in a solution of ENAH EVH1 domain at a relevant dilution series in BLI buffer at an orbital shake speed of 1000 rpm and run until the binding signal plateaued. ENAH-bound tips were subsequently placed into BLI buffer only for dissociation and run until the binding signal plateaued. KD values were obtained through steady state analysis. […] The association phases were then fit to a one-phase binding model in Prism and the equilibrium steady-state binding signal values from that fit were plotted against ENAH concentration and fit to a single-site specific binding model in Prism to obtain dissociation constants. Errors reported are the standard deviation of two replicates.
Monomeric ENAH, EVL, or VASP EVH1 domains for use in BLI and ITC experiments, or ENAH EVH1-peptide fusions for crystallography was cloned into a pMCSG7 vector (gift from Frank Gertler, MIT), which places a 6×-His and TEV cleavage tag N-terminal to the EVH1 domain. These constructs were transformed into Rosetta2(DE3) cells and grown in 2×YT media supplemented with 100 μg/mL ampicillin. Cells were grown while shaking at 37° C. to an O.D. 600 of 0.5-0.7, and then cooled on ice for at least 20 minutes. They were then induced with 0.5 mM IPTG and grown while shaking at 18° C. overnight. Induced cultures were resuspended in 25 mL of wash buffer (20 mM Hepes pH 7.6, 500 mM NaCl, 20 mM imidazole) and frozen at −80° C. overnight. The next day, cultures were sonicated, spun down, and applied to Ni-NTA acid agarose resin equilibrated with wash buffer, and washed as described above. Samples were eluted in 10 mL elution buffer (20 mM Hepes pH 7.6, 500 mM NaCl, […]). TEV protease was added to the elution at a ratio of 1 mg TEV:50 mg tagged protein along with 1 mM DTT. This mixture was dialyzed against TEV cleavage buffer (50 mM Hepes pH 8.0, 300 mM NaCl, 5 mM DTT, 1 mM EDTA) at 4° C. overnight and then applied over Ni-NTA acid agarose resin equilibrated with wash buffer. The column was washed with 2×8 mL of wash buffer, and the resulting flow-through and washes were pooled, concentrated, and applied to an S75 26/60 column equilibrated in gel filtration buffer (20 mM Hepes pH 7.6, 150 mM NaCl, 1 mM DTT, 1% glycerol). Purity was verified by SDS-PAGE and combined fractions were concentrated and flash frozen at −80° C.
Rosetta2(DE3) cells (Novagen) were transformed with pDW363 vector encoding 6×-His-SUMO-peptide fusions and grown in 20 mL of LB+100 μg/mL Ampicillin+0.050 mM D-(+)-Biotin dissolved in DMSO for in vivo biotinylation. Cells were grown to an OD of 0.5-0.7 with 1 mM IPTG and induced for 4-6 hours at 37° C. Pellets were spun down and frozen and −80° C. for at least 2 hours. These pellets were then thawed and resuspended in B-PER reagent (ThermoFisher) at 4 mL/gram of pellet with 0.2 mM PMSF. This suspension was shaken at 25° C. for 10-15 minutes, and then spun down at 15,000 g for 10 minutes. The supernatant was applied to 250 μL of Ni-NTA acid agarose resin equilibrated in 20 mM Tris pH 8.0, 500 mM NaCl, 20 mM Imidazole (Buffer A), and then washed 3 times with 1 mL of this buffer. Peptides were eluted in 1.8 mL of 20 mM Tris pH 8.0, 500 mM NaCl, 300 mM imidazole to use in BLI assays.

Compound | binding to EVL Y63C, I26A and VASP W89Y, L15V, in words [1] | preference / selectivity for ENAH over VASP or EVL EVH1 domains [2] | tighter binding than PCARE B [3] [fold] | slower dissociation than dual-motif peptide LPP ([3]; BLI off-rate) [fold]
CSCC[C@H](NC(=O)[C@H](CC(C)C)NC(=O)[C@@H](NC(=O)[C@H](CCC(=O)O)NC(=O)[C@H](CCSC)NC(=O)[C@@H]1CCCN1C(=O)[C@@H]1CCCN1C(=O)[C@@H]1CCCN1C(=O)[C@@H]1CCCN1C(=O)[C@H](CC(C)C)NC(=O)[C@H](Cc1c[nH]cn1)NC(=O)[C@H](CCC(=O)O)NC(=O)[C@H](CC(C)C)NC(=O)[C@@H](N)CC(N)=O)C(C)C)C(=O)N[C@@H](CC(=O)O)C(=O)N[C@@H](CCCCN)C(=O)N[C@@H](CO)C(=O)N[C@@H](Cc1ccccc1)C(=O)N[C@@H](C)C(=O)N[C@@H](CO)C(=O)N[C@@H](CC(C)C)C(=O)N[C@@H](CCC(=O)O)C(=O)N[C@@H](CO)C(=O)O [PCARE B] | not sufficient to confer high affinity of binding |  |  | 
CSCC[C@H](NC(=O)[C@H](CC(C)C)NC(=O)[C@@H](NC(=O)[C@H](CCC(=O)O)NC(=O)[C@H](CCSC)NC(=O)[C@@H]1CCCN1C(=O)[C@@H]1CCCN1C(=O)[C@@H]1CCCN1C(=O)[C@@H]1CCCN1C(=O)[C@H](CC(C)C)NC(=O)[C@H](Cc1c[nH]cn1)NC(=O)[C@H](CCC(=O)O)NC(=O)[C@H](CC(C)C)NC(=O)[C@@H](N)CC(N)=O)C(C)C)C(=O)N[C@@H](CC(=O)O)C(=O)N[C@@H](CCCCN)C(=O)N[C@@H](CO)C(=O)N[C@@H](Cc1ccccc1)C(=O)N[C@@H](C)C(=O)N[C@@H](CO)C(=O)N[C@@H](CC(C)C)C(=O)N[C@@H](CCC(=O)O)C(=O)N[C@@H](CO)C(=O)NCC(=O)N[C@@H](CO)C(=O)NCC(=O)N[C@@H](CO)C(=O)N1CCC[C@H]1C(=O)N1CCC[C@H]1C(=O)N1CCC[C@H]1C(=O)N1CCC[C@H]1C(=O)N1CCC[C@H]1C(=O)N[C@@H](Cc1ccccc1)C(=O)O [PCARE-Dual] |  | 400-600 fold | ~7 | ~100
